Measured values: patent US6867185B2 (Bristol-Myers Squibb Company, priority 2001, dated 2005)

Columns and labels:
[1] = tested on: HCV replicon in Huh7 cells; assay: HCV replicon cell-based assay (replicon FRET assay); parameters: species or system HCV strain 1B; conditions: Hepatitis C virus, Huh-7, HCV replicon cell assay; EC50 ranges
Text: An HCV replicon whole cell system was established as described by Lohmann V, Korner F, Koch J, Herian U, Theilmann L, Bartenschlager R., Science 285 (5424):110-3 (1999). This system enabled us to evaluate the effects of our HCV Protease compounds on HCV RNA replication. Briefly, using the HCV strain 1B sequence described in the Lohmann paper (Assession number:AJ238799), an HCV cDNA was generated encoding the 5′ internal ribosome entry site (IRES), the neomycin resistance gene, the EMCV (encephalomyocarditis viurs)-IRES and the HCV nonstructural proteins, NS3-NS5B, and 3′ non-translated region (NTR). In vitro transcripts of the cDNA were transfected into the human hepatoma cell line, Huh7. […] Resulting cell lines were characterized for positive and negative strand RNA production and protein production over time.
Huh7 cells, constitutively expressing the HCV replicon, were grown in Dulbecco's Modified Eagle Media (DMEM) containing 10% Fetal calf serum (FCS) and 1 mg/ml G418 (Gibco-BRL). Cells were seeded the night before (1.5×10^4 cells/well) in 96-well tissue-culture sterile plates. Compound and no compound controls were prepared in DMEM containing 4% FCS, 1:100 Penicillin/Streptomysin, 1:100 L-glutamine and 5% DMSO in the dilution plate (0.5% DMSO final concentration in the assay). Compound/DMSO mixes were added to the cells and incubated for 4 days at 37° C. After 4 days, plates were rinsed thoroughly with Phosphate-Buffered Saline (PBS) (3 times 150 μl). The cells were lysed with 25 μl of a lysis assay reagent containing the FRET peptide (RET S1, as described for the in vitro enzyme assay). The lysis assay reagent was made from 5× cell Luciferase cell culture lysis reagent(Promega #E153A) diluted to 1× with distilled water, NaCl added to 150 mM final, the FRET peptide diluted to 10 μM final from a 2 mM stock in 100% DMSO. The plate was then placed into the Cytofluor 4000 instrument which had been set to 340 nm excitation/490 emission, automatic mode for 21 cycles and the plate read in a kinetic mode. EC50 determinations were carried out as described for the IC50 determinations.

[2] = target: T1, HCV NS3/4A protease complex, BMS strain (genotype 1a) (Hepatitis C virus genotype 1a, UniProt P27958, C1454S/C1711G); assay: Recombinant HCV NS3/4A protease complex FRET peptide assay (BMS strain); assay type: biochemical; conditions: IC50, HCV NS3/4A protease FRET assay in vitro; IC50 ranges
T1 construct: recombinant HCV NS3/4A protease complex (amino'acids 1027 to 1711); inferred from the pET21b vector and Ni-NTA purification; made in house; host or cells: Escherichia coli BL21 (DE3), pET21b
T1 sequence (P27958 1027-1711 C1454S/C1711G, one chain of several): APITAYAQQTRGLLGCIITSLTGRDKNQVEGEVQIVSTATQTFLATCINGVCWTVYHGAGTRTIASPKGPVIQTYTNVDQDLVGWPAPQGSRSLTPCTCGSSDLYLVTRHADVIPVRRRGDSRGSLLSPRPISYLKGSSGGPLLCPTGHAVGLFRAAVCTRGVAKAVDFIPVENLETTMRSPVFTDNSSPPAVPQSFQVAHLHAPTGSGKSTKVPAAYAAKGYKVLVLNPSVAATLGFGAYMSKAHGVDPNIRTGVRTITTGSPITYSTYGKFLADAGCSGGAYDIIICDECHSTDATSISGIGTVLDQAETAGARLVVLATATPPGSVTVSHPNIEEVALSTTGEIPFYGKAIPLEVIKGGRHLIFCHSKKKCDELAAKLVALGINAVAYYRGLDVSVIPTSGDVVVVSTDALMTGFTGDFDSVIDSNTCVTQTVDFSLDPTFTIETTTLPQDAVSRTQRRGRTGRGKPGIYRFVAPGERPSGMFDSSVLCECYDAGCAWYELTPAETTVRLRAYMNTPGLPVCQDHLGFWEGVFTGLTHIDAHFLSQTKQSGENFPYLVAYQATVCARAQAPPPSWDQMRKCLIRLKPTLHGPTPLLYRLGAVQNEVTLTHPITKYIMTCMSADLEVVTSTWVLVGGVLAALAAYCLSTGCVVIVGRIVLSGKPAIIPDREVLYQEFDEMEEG
Text: The purpose of this in vitro assay was to measure the inhibition of HCV NS3 protease complexes, derived from the BMS, H77C or J4L6S strains, as described below, by compounds of the present invention. This assay provides an indication of how effective compounds of the present invention would be in inhibiting HCV proteolytic activity.
Serum from an HCV-infected patient was obtained from Dr. T. Wright, San Francisco Hospital. An engineered full-length cDNA (compliment deoxyribonucleic acid) template of the HCV genome (BMS strain) was constructed from DNA fragments obtained by reverse transcription-PCR (RT-PCR) of serum RNA (ribonucleic acid) and using primers selected on the basis of homology between other genotype 1a strains. From the determination of the entire genome sequence, a genotype 1a was assigned to the HCV isolate according to the classification of Simmonds et al. (See P Simmonds, K A Rose, S Graham, S W Chan, F McOmish, B C Dow, E A Follett, P L Yap and H Marsden, J. Clin. Microbiol., 31 (6), 1493-1503 (1993)). […] The infectious clones, H77C (1a genotype) and J4L6S (1b genotype) were obtained from R. Purcell (N1H) and the sequences are published in Genbank (AAB67036, see Yanagi, M., Purcell, R. H., Emerson, S. U. and Bukh, J. Proc. Natl. Acad. Sci. U.S.A. 94 (16), 8738-8743 (1997); AF054247, see Yanagi, M., St Claire, M., Shapiro, M., Emerson, S. U., Purcell, R. H. and Bukh, J, Virology 244 (1), 161-172. (1998)).
The BMS, H77C and J4L6S strains were used for production of recombinant NS3/4A protease complexes. DNA encoding the recombinant HCV NS3/4A protease complex (amino'acids 1027 to 1711) for these strains were manipulated as described by P. Gallinari et al. (see Gallinari P, Paolini C, Brennan D, Nardi C, Steinkuhler C, De Francesco R. Biochemistry. 38 (17):5620-32, (1999)). Briefly, a three-lysine solubilizing tail was added at the 3′-end of the NS4A coding region. The cysteine in the P1 position of the NS4A-NS4B cleavage site (amino acid 1711) was changed to a glycine to avoid the proteolytic cleavage of the lysine tag. Furthermore, a cysteine to serine mutation was introduced by PCR at amino acid position 1454 to prevent the autolytic cleavage in the NS3 helicase domain. The variant DNA fragment was cloned in the pET21b bacterial expression vector (Novagen)and the NS3/4A complex was expressed in Escherichia. coli strain BL21 (DE3) (Invitrogen) following the protocol described by P. Gallinari et al. (see Gallinari P, Brennan D, Nardi C, Brunetti M, Tomei L, Steinkuhler C, De Francesco R., J. Virol. 72 (8):6758-69 (1998)) with modifications. Briefly, NS3/4A expression was induced with 0.5 mM Isopropyl β-D-1-thiogalactopyranoside (IPTG) for 22 hr at 20° C. A typical fermentation (10L) yielded approximately 80 g of wet cell paste. The cells were resuspended in lysis buffer (10 mL/g) consisting of 25 mM N-(2-Hydroxyethyl)Piperazine-N′-(2-Ethane Sulfonic acid) (HEPES), pH 7.5, 20% glycerol, 500 mM Sodium Chloride (NaCl), 0.5% Triton-X100, 1 ug/ml lysozyme, 5 mM Magnesium Chloride (MgCl2), 1 ug/ml Dnasel, 5 mM β-Mercaptoethanol (OME), Protease inhibitor-Ethylenediamine Tetraacetic acid (EDTA) free (Roche), homogenized and incubated for 20 mins at 4° C. The homogenate was sonicated and clarified by ultra-centrifugation at 235000 g for 1 hr at 4° C. Imidazole was added to the supernatant to a final concentration of 15 mM and the pH adjusted to 8.0. The crude protein extract was loaded on a Nickel-Nitrilotriacetic acid (Ni-NTA) column pre-equilibrated with buffer B (25 mM HEPES, pH 8.0, 20% glycerol, 500 mM NaCl, 0.5% Triton-X100, 15 mM imidazole, 5 mM βME). The sample was loaded at a flow rate of 1 mL/min. The column was washed with 15 column volumes of buffer C (same as buffer B except with 0.2% Triton-X100). The protein was eluted with 5 column volumes of buffer D (same as buffer C except with 200 mM Imidazole). […]

Structure (SMILES) | EC50 [1] [nM] | IC50 [2] [nM]
COc1ccc2c(O[C@@H]3C[C@H]4C(=O)N[C@]5(C(=O)NS(=O)(=O)C6CC6)C[C@H]5CCCCCCC[C@H](NC(=O)OCC(C)(C)C)C(=O)N4C3)cc(-c3ccccc3)nc2c1 [Compound 22, (1S,4R,6R,14S,18R)-[4-Cyclopropanesulfonylaminocarbonyl-18-(7-methoxy-2-phenylquinolin-4-yloxy)-2,15-dioxo-3,16-diazatricyclo[14.3.0.0^4,6]-nonadec-14-yl]carbamic acid 2,2-dimethylpropyl ester] | < 50 | < 50
COc1ccc2c(O[C@@H]3C[C@H]4C(=O)N[C@]5(C(=O)NS(=O)(=O)C6CC6)CC5CCCCCCC[C@H](NC(=O)OC5CCOCC5)C(=O)N4C3)cc(-c3ccccc3)nc2c1 (stereo partly drawn) [Compound 23, (1S,4R,6R,14S,18R)-[4-Cyclopropanesulfonyl-aminocarbonyl-18-(7-methoxy-2-phenylquinolin-4-yloxy)-2,15-dioxo-3,16-diazatricyclo[14.3.0.0^4,6]nonadec-14-yl]carbamic acid tetrahydro[4H]pyran-4-yl ester] | < 50 | < 50
COc1ccc2c(O[C@@H]3C[C@H]4C(=O)N[C@]5(C(=O)NS(=O)(=O)C6CC6)CC5CCCCCC[C@H](NC(=O)CC5CC5)C(=O)N4C3)cc(-c3ccccc3)nc2c1 (stereo partly drawn) [Compound 24, (1S,4R,6R,14S,17R)-N-[4-Cyclopropanesulfonylaminocarbonyl-17-(7-methoxy-2-phenylquinolin-4-yloxy)-2,14-dioxo-3,15-diazatricyclo[13.3.0.0^4,6]-octadec-13-yl]-2-cyclopropylacetamide] | < 50 | < 50
COc1ccc2c(O[C@@H]3C[C@H]4C(=O)N[C@]5(C(=O)NS(=O)(=O)C6CC6)CC5CCCCCC[C@H](NC(=O)OC5CCCC5)C(=O)N4C3)cc(-c3ccccc3)nc2c1 (stereo partly drawn) [Compound 25, (1S,4R,6R,14S,17R)-[4-Cyclopropanesulfonylaminocarbonyl-17-(7-methoxy-2-phenylquinolin-4-yloxy)-2,14-dioxo-3,15-diazatricyclo[13.3.0.0^4,6]octa-dec-13-yl]carbamic acid cyclopentyl ester] | < 50 | < 50
COc1ccc2c(O[C@@H]3C[C@H]4C(=O)N[C@]5(C(=O)NS(=O)(=O)C6CC6)CC5CCCCCC[C@H](NC(=O)O[C@H]5CCOC5)C(=O)N4C3)cc(-c3ccccc3)nc2c1 (stereo partly drawn) [Compound 26, (1S,4R,6R,14S,17R,3′S)-[4-Cyclopropanesulfonyl-aminocarbonyl-17-(7-methoxy-2-phenylquinolin-4-yloxy)-2,14-dioxo-3,15-diazatricyclo[13.3.0.0^4,6]-octadec-13-yl]-carbamic acid tetrahydrofuran-3′-yl ester] | < 50 | < 50
COc1ccc2c(O[C@@H]3C[C@H]4C(=O)N[C@]5(C(=O)NS(=O)(=O)C6CC6)C[C@H]5/C=C\CCCCC[C@H](NC(=O)OC(C)(C)C)C(=O)N4C3)cc(-c3csc(C(C)C)n3)nc2c1 [Compound 27] | < 50 | < 50
COc1ccc2c(O[C@@H]3C[C@H]4C(=O)N[C@]5(C(=O)NS(=O)(=O)C6CC6)C[C@H]5/C=C\CCCCC[C@H](NC(=O)OC(C)(C)C)C(=O)N4C3)cc(-c3csc(NC(C)=O)n3)nc2c1 [Compound 28, (1S,4R,6S,14S,18R)-7-cis-{18-[2-(2-Acetylaminothiazol-4-yl)-7-methoxyquinolin-4-yloxy]-4-cyclopropanesulfonylaminocarbonyl-2,15-dioxo-3,16-diazatricyclo-[14.3.0.0^4,6]nonadec-7-en-14-yl}carbamic acid tert-butyl ester] | < 50 | < 50
CC(C)(C)OC(=O)N[C@H]1CCCCC/C=C\[C@@H]2C[C@@]2(C(=O)NS(=O)(=O)C2CC2)NC(=O)[C@@H]2C[C@@H](Oc3ccnc4ccccc34)CN2C1=O [Compound 29, (1S,4R,6S,14S,18R)-7-cis-[4-Cyclopropanesulfonylaminocarbonyl-2,15-dioxo-18-(quinolin-4-yloxy)-3,16-diazatricyclo[14.3.0.0^4,6]nonadec-7-en-14-yl]carbamic acid tert-butyl ester] | < 50 | < 50
CC(C)(C)OC(=O)N[C@H]1CCCCC/C=C\[C@@H]2C[C@@]2(C(=O)NS(C)(=O)=O)NC(=O)[C@@H]2C[C@@H](Oc3ccnc4ccccc34)CN2C1=O [Compound 30, (1S,4R,6S,14S,18R)-7-cis-[4-Methanesulfonylaminocarbonyl-2,15-dioxo-18-(quinolin-4-yloxy)-3,16-diazatricyclo[14.3.0.0^4,6]nonadec-7-en-14-yl]-carbamic acid tert-butyl ester] | < 5000 | < 50
COc1ccc2c(O[C@@H]3C[C@H]4C(=O)N[C@]5(C(=O)NS(=O)(=O)C6CC6)CC5/C=C\CCCSC[C@H](NC(=O)OC(C)(C)C)C(=O)N4C3)cc(-c3ccccc3)nc2c1 (stereo partly drawn) [Compound 31, (1S,4R,6S,14S,18R)-7-cis-[4-Cyclopropanesulfonylaminocarbonyl-18-(7-methoxy-2-phenyl-quinolin-4-yloxy)-2,15-dioxo-12-thia-3,16-diazatricyclo[14.3.0.0^4,6]nonadec-7-en-14-yl]-carbamic acid tert-butyl ester] | < 50 | < 50
